Converted amounts (≈) assume the structure as drawn. Read-outs that look alike come from different tables or passages of the source.
Experiments:
[1] = in vitro; type: in vitro ADME, mouse; details: male, CD-1, mouse; for fraction unbound at 4 h, 5 μM: plasma (pooled), mouse plasma, read-out: fu, fraction unbound; for recovery at 4 h, 5 μM: plasma protein binding assay
Method: The PPB studies were performed by Selvita d.o.o. (Zagreb, Croatia) in mouse plasma (CD-1 male, pooled, commercially obtained from BioIVT) via equilibrium dialysis. Compounds were assayed at 5 μM (0.5% DMSO) in two replicates, and incubation time was 4 h at 37 °C. Samples were taken at 0 min and 4 h. Aliquots from both buffer and plasma compartment matrix were matched and mixed with 6 volumes of STOP solution (acetonitrile/methanol (2:1) + internal standard – diclofenac) and analyzed by LC–MS/MS. Assay controls were caffeine (low), verapamil (moderate binding), and nicardipine (very high binding), and protein contamination was checked.

[2] = tested on: 100 A. baumannii strains (50 MDR, 50 non-MDR); experiment: MIC broth microdilution at IHMA Europe, panel of 100 strains; type: cell-based; details: for MIC / MIC50 / MIC90: Acinetobacter baumannii; for MIC50: read-out: MIC 50; for MIC90: read-out: MIC 90

Cc1[nH]c(C(=O)Nc2nc3c(N4CCOC[C@H]4C)cc(C(=O)O)cc3s2)c(Cl)c1Cl [7c, (R)-2-(3,4-Dichloro-5-methyl-1H-pyrrole-2-carboxamido)-4-(3-methylmorpholino)benzo[d]thiazole-6-carboxylic Acid]
fraction unbound at 4 h, 5 μM [1]: 0.016 | recovery at 4 h, 5 μM [1]: 93%

Cc1[nH]c(C(=O)Nc2nc3c(N4CCOCC4C)cc(C(=O)O)cc3s2)c(Cl)c1Cl (centres unmarked) [7b, 2-(3,4-Dichloro-5-methyl-1H-pyrrole-2-carboxamido)-4-(3-methylmorpholino)benzo[d]thiazole-6-carboxylic Acid]
fraction unbound at 4 h, 5 μM [1]: 0.013 | recovery at 4 h, 5 μM [1]: 84.5%

O=C(O)c1cn(C2CC2)c2cc(N3CCNCC3)c(F)cc2c1=O [ciprofloxacin]
MIC ([2]; A. baumannii IHMA 1769393, Lithuania 2018, Non-MDR, read-out: MIC): 0.5 µg/mL (≈ 1.51 µM) | MIC ([2]; A. baumannii IHMA 1769782, Israel 2018, MDR, read-out: MIC): > 16 µg/mL | MIC ([2]; A. baumannii IHMA 1769910, Israel 2018, Non-MDR, read-out: MIC): 1 µg/mL (≈ 3.02 µM) | MIC ([2]; A. baumannii IHMA 1790317, Czech Republic 2018, Non-MDR, read-out: MIC): ≤ 0.06 µg/mL | MIC ([2]; A. baumannii IHMA 1790916, Romania 2018, Non-MDR, read-out: MIC): ≤ 0.06 µg/mL | MIC ([2]; A. baumannii IHMA 1791877, Israel 2018, MDR, read-out: MIC): > 16 µg/mL | MIC ([2]; A. baumannii IHMA 1792961, Jordan 2018, MDR, read-out: MIC): > 16 µg/mL | MIC ([2]; A. baumannii IHMA 1795669, Tunisia 2018, Non-MDR, read-out: MIC): ≤ 0.06 µg/mL | MIC ([2]; A. baumannii IHMA 1814276, Lebanon 2018, MDR, read-out: MIC): > 16 µg/mL | MIC ([2]; A. baumannii IHMA 1815198, Kuwait 2018, MDR, read-out: MIC): > 16 µg/mL | MIC ([2]; A. baumannii IHMA 1815856, Israel 2018, MDR, read-out: MIC): > 16 µg/mL | MIC ([2]; A. baumannii IHMA 1830924, United Kingdom 2018, Non-MDR, read-out: MIC): 0.5 µg/mL (≈ 1.51 µM) | MIC ([2]; A. baumannii IHMA 1849819, Kuwait 2018, MDR, read-out: MIC): > 16 µg/mL | MIC ([2]; A. baumannii IHMA 1849829, Kuwait 2018, Non-MDR, read-out: MIC): ≤ 0.06 µg/mL | MIC ([2]; A. baumannii IHMA 1926285, Qatar 2018, Non-MDR, read-out: MIC): ≤ 0.06 µg/mL | MIC ([2]; A. baumannii IHMA 1926288, Qatar 2018, MDR, read-out: MIC): > 16 µg/mL | MIC ([2]; A. baumannii IHMA 1963732, Turkey 2019, MDR, read-out: MIC): > 16 µg/mL | MIC ([2]; A. baumannii IHMA 1967860, Spain 2019, Non-MDR, read-out: MIC): 1 µg/mL (≈ 3.02 µM) | MIC ([2]; A. baumannii IHMA 1971673, Latvia 2019, MDR, read-out: MIC): > 16 µg/mL | MIC ([2]; A. baumannii IHMA 1983151, Greece 2019, MDR, read-out: MIC): > 16 µg/mL | MIC ([2]; A. baumannii IHMA 1984665, Lithuania 2019, MDR, read-out: MIC): > 16 µg/mL | MIC ([2]; A. baumannii IHMA 1986738, Turkey 2019, MDR, read-out: MIC): > 16 µg/mL | MIC ([2]; A. baumannii IHMA 1987162, Croatia 2019, MDR, read-out: MIC): > 16 µg/mL | MIC ([2]; A. baumannii IHMA 1993615, Turkey 2019, MDR, read-out: MIC): > 16 µg/mL | MIC ([2]; A. baumannii IHMA 1994284, Italy 2019, MDR, read-out: MIC): > 16 µg/mL | MIC ([2]; A. baumannii IHMA 2003279, Turkey 2019, MDR, read-out: MIC): > 16 µg/mL | MIC ([2]; A. baumannii IHMA 2014931, South Africa 2019, Non-MDR, read-out: MIC): 2 µg/mL (≈ 6.04 µM) | MIC ([2]; A. baumannii IHMA 2020360, Croatia 2019, MDR, read-out: MIC): > 16 µg/mL | MIC ([2]; A. baumannii IHMA 2031511, Greece 2019, Non-MDR, read-out: MIC): ≤ 0.06 µg/mL | MIC ([2]; A. baumannii IHMA 2031524, Greece 2019, MDR, read-out: MIC): > 16 µg/mL | MIC ([2]; A. baumannii IHMA 2035089, Serbia 2019, MDR, read-out: MIC): > 16 µg/mL | MIC ([2]; A. baumannii IHMA 2038976, Hungary 2019, MDR, read-out: MIC): > 16 µg/mL | MIC ([2]; A. baumannii IHMA 2051503, Serbia 2019, MDR, read-out: MIC): > 16 µg/mL | MIC ([2]; A. baumannii IHMA 2065587, France 2019, Non-MDR, read-out: MIC): ≤ 0.06 µg/mL | MIC ([2]; A. baumannii IHMA 2129256, Qatar 2019, Non-MDR, read-out: MIC): ≤ 0.06 µg/mL | MIC ([2]; A. baumannii IHMA 2154584, Israel 2020, MDR, read-out: MIC): > 16 µg/mL | MIC ([2]; A. baumannii IHMA 2155340, Kenya 2020, MDR, read-out: MIC): > 16 µg/mL | MIC ([2]; A. baumannii IHMA 2156634, Turkey 2020, MDR, read-out: MIC): > 16 µg/mL | MIC ([2]; A. baumannii IHMA 2156709, Turkey 2020, MDR, read-out: MIC): > 16 µg/mL | MIC ([2]; A. baumannii IHMA 2177232, Lithuania 2020, MDR, read-out: MIC): > 16 µg/mL | MIC ([2]; A. baumannii IHMA 2177489, Lithuania 2020, MDR, read-out: MIC): > 16 µg/mL | MIC ([2]; A. baumannii IHMA 2178574, Ukraine 2020, Non-MDR, read-out: MIC): ≤ 0.06 µg/mL | MIC ([2]; A. baumannii IHMA 2180142, Malaysia 2020, MDR, read-out: MIC): > 16 µg/mL | MIC ([2]; A. baumannii IHMA 2181370, Morocco 2020, MDR, read-out: MIC): > 16 µg/mL | MIC ([2]; A. baumannii IHMA 2183729, Argentina 2020, MDR, read-out: MIC): > 16 µg/mL | MIC ([2]; A. baumannii IHMA 2193375, Venezuela 2020, MDR, read-out: MIC): > 16 µg/mL | MIC ([2]; A. baumannii IHMA 2193485, Venezuela 2020, Non-MDR, read-out: MIC): ≤ 0.06 µg/mL | MIC ([2]; A. baumannii IHMA 2193607, Venezuela 2020, MDR, read-out: MIC): > 16 µg/mL | MIC ([2]; A. baumannii IHMA 2195460, Italy 2020, MDR, read-out: MIC): > 16 µg/mL | MIC ([2]; A. baumannii IHMA 2196914, South Africa 2020, MDR, read-out: MIC): > 16 µg/mL | MIC ([2]; A. baumannii IHMA 2196959, South Africa 2020, MDR, read-out: MIC): > 16 µg/mL | MIC ([2]; A. baumannii IHMA 2203763, Spain 2020, MDR, read-out: MIC): > 16 µg/mL | MIC ([2]; A. baumannii IHMA 2205144, Korea, South 2020, MDR, read-out: MIC): > 16 µg/mL | MIC ([2]; A. baumannii IHMA 2206459, Taiwan 2020, MDR, read-out: MIC): > 16 µg/mL | MIC ([2]; A. baumannii IHMA 2206507, Taiwan 2020, Non-MDR, read-out: MIC): ≤ 0.06 µg/mL | MIC ([2]; A. baumannii IHMA 2216586, Taiwan 2020, MDR, read-out: MIC): > 16 µg/mL | MIC ([2]; A. baumannii IHMA 2224017, Panama 2020, MDR, read-out: MIC): > 16 µg/mL | MIC ([2]; A. baumannii IHMA 2231797, Greece 2020, MDR, read-out: MIC): > 16 µg/mL | MIC ([2]; A. baumannii IHMA 2233099, Guatemala 2020, MDR, read-out: MIC): > 16 µg/mL | MIC ([2]; A. baumannii IHMA 2233430, Kazakhstan 2020, MDR, read-out: MIC): > 16 µg/mL | MIC ([2]; A. baumannii IHMA 2238964, Thailand 2020, MDR, read-out: MIC): > 16 µg/mL | MIC ([2]; A. baumannii IHMA 2261047, Belgium 2020, MDR, read-out: MIC): > 16 µg/mL | MIC ([2]; A. baumannii IHMA 2274234, South Africa 2020, MDR, read-out: MIC): > 16 µg/mL | MIC ([2]; A. baumannii IHMA 2274364, South Africa 2020, MDR, read-out: MIC): > 16 µg/mL | MIC ([2]; A. baumannii IHMA 2275751, Jordan 2020, MDR, read-out: MIC): > 16 µg/mL | MIC ([2]; A. baumannii IHMA 2316205, United States 2020, MDR, read-out: MIC): > 16 µg/mL | MIC ([2]; MDR n = 50, read-out: MAX (maximum MIC; all strains inhibited)): > 16 µg/mL | MIC50 ([2]; MDR n = 50): > 16 µg/mL | MIC90 ([2]; MDR n = 50): > 16 µg/mL | MIC ([2]; MDR n = 50, read-out: MIN (minimum MIC)): > 16 µg/mL | MIC ([2]; all isolates n = 100, read-out: MAX (maximum MIC; all strains inhibited)): > 16 µg/mL | MIC50 ([2]; all isolates n = 100): 2 µg/mL (≈ 6.04 µM) | MIC90 ([2]; all isolates n = 100): > 16 µg/mL | MIC ([2]; all isolates n = 100, read-out: MIN (minimum MIC)): ≤ 0.06 µg/mL | MIC ([2]; non-MDR n = 50, read-out: MAX (maximum MIC)): 2 µg/mL (≈ 6.04 µM) | MIC ([2]; non-MDR n = 50, read-out: MIN (minimum MIC)): ≤ 0.06 µg/mL | Percentage I ([2]; MDR n = 50): 0% | Percentage R ([2]; MDR n = 50): 100% | Percentage S ([2]; MDR n = 50): 0% | Percentage I ([2]; non-MDR n = 50): 2% | Percentage R ([2]; non-MDR n = 50): 0% | Percentage S ([2]; non-MDR n = 50): 98%

Cc1[nH]c(C(=O)Nc2nc3c(N4CCOC(C(F)(F)F)C4)cc(C(=O)O)cc3s2)c(Cl)c1Cl (centres unmarked) [7i, 2-(3,4-Dichloro-5-methyl-1H-pyrrole-2-carboxamido)-4-(2-(trifluoromethyl)morpholino)benzo[d]thiazole-6-carboxylic Acid]
fraction unbound at 4 h, 5 μM [1]: < 0.001 | recovery at 4 h, 5 μM [1]: 110%

Cc1[nH]c(C(=O)Nc2nc3c(N4C[C@H]5CC[C@@H](C4)O5)cc(C(=O)O)cc3s2)c(Cl)c1Cl [7g, 4-((1R,5S)-8-Oxa-3-azabicyclo[3.2.1]octan-3-yl)-2-(3,4-dichloro-5-methyl-1H-pyrrole-2-carboxamido)benzo[d]thiazole-6-carboxylic Acid]
fraction unbound at 4 h, 5 μM [1]: 0.004 | recovery at 4 h, 5 μM [1]: 93.5%

Cc1[nH]c(C(=O)Nc2nc3c(N4CCOC[C@@H]4C)cc(C(=O)O)cc3s2)c(Cl)c1Cl [7d, (S)-2-(3,4-Dichloro-5-methyl-1H-pyrrole-2-carboxamido)-4-(3-methylmorpholino)benzo[d]thiazole-6-carboxylic Acid]
fraction unbound at 4 h, 5 μM [1]: 0.011 | recovery at 4 h, 5 μM [1]: 89.5%
